According to patent US12686690B2, “Macrocyclic urea orexin receptor agonists” (Merck Sharp & Dohme LLC, priority 2020, dated 2026):

Molecular target: T1, hOX2R (Homo sapiens, UniProt O43614)
T1 construct: expressed in transfected cells; host or cells: CHO cells (G418 selection)
T1 sequence (O43614 1-444): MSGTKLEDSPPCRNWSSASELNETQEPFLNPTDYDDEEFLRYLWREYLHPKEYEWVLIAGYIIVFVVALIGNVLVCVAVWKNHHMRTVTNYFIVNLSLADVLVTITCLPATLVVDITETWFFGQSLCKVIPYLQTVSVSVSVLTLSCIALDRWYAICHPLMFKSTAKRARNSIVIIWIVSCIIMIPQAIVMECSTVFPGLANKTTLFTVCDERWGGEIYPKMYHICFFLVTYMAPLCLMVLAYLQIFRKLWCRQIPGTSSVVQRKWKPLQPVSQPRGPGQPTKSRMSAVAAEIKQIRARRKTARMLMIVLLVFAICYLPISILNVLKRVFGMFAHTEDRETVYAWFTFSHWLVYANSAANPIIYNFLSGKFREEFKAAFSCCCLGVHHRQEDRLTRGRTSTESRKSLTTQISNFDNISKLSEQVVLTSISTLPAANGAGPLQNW
Experiment: hOX2R IPone assay (orexin receptor agonism)
Assay type: cell-based
Details: IPone readout; for hOX2R_Ipone max %act: maximal activation; for EC50: orexin receptor agonist, read-out: hOX2R_IPone EC50

| SMILES | hOX2R_Ipone max %act [%] | EC50 [nM] |
| --- | --- | --- |
| CCN1C(=O)N[C@@H](CCC(C)(F)F)CCOCCOc2nc(cn3ncnc23)-c2ccnc(c2)[C@H]1C [Example 180] | 100.8 | 4.15 |
| CCN1C(=O)NC(CC#N)CCCCCOc2nc(cn3ccnc23)-c2cc(ncc2OC)[C@H]1C (stereo partly drawn) [Example 194, 2-((3R,E)-4-ethyl-25-methoxy-3-methyl-5-oxo-13-oxa-4,6-diaza-1(6,8)-imidazo[1,2-a]pyrazina-2(4,2)-pyridinacyclotridecaphane-7-yl)acetonitrile] | 102.2 | 1.2 |
| CCN1C(=O)NC(CCC(F)F)CCCCCOc2nc(cn3ccnc23)-c2cc(ncc2OC)[C@H]1C(F)(F)F (stereo partly drawn) [Example 208, (3S,E)-7-(3,3-difluoropropyl)-4-ethyl-25-methoxy-3-(trifluoromethyl)-13-oxa-4,6-diaza-1(6,8)-imidazo[1,2-a]pyrazina-2(4,2)-pyridinacyclotridecaphan-5-one] | 101.8 | 0.29 |
| CCN1C(=O)NC(c2cscn2)CCCCCOc2nc(cn3ccnc23)-c2cccc(c2)[C@H]1C (single isomer, unassigned) [Example 19A] | 97.1 | 337 |
| CCN1C(=O)NC(CC2(F)CC2)CCCCCOc2nc(cn3ccnc23)-c2cc(ncc2OC)[C@H]1C (stereo partly drawn) [Example 183, (3R,E)-4-ethyl-7-((1-fluorocyclopropyl)methyl)-25-methoxy-3-methyl-13-oxa-4,6-diaza-1(6,8)-imidazo[1,2-a]pyrazina-2(4,2)-pyridinacyclotridecaphan-5-one] | 100.2 | 1 |
| CCN1C(=O)NC(CCC(F)(F)F)CCOCCOc2nc(cn3ccnc23)-c2cc(ncc2OC)[C@H]1C (single isomer, unassigned) [Example 6B] | 101.5 | 0.6 |
| CCN1C(=O)NC(CCC(C)(F)F)CCCCCOc2nc(nn3ccnc23)-c2cc(ncc2OC)[C@H]1C (stereo partly drawn) [Example 200, (3R,E)-7-(3,3-difluorobutyl)-4-ethyl-25-methoxy-3-methyl-13-oxa-4,6-diaza-1(2,4)-imidazo[2,1-f][1,2,4]triazina-2(4,2)-pyridinacyclo-tridecaphan-5-one] | 99.5 | 0.53 |
| CCN1C(=O)N[C@@H](CCC(F)(F)F)CCCCCOc2nc(cn3ccnc23)-c2cc(cnc2OC)[C@H]1C [Example 28, (3R,7R,E)-4-ethyl-22-methoxy-3-methyl-7-(3,3,3-trifluoropropyl)-13-oxa-4,6-diaza-1(6,8)-imidazo[1,2-a]pyrazina-2(3,5)-pyridinacyclotridecaphan-5-one] | 102.2 | 0.9 |
| CCN1C(=O)N[C@@H](CCC(F)(F)F)CCCCOc2nc(nn3ccnc23)-c2cc(cnc2OC)[C@H]1C [Example 46, (3R,7R,E)-4-ethyl-22-methoxy-3-methyl-7-(3,3,3-trifluoropropyl)-12-oxa-4,6-diaza-1(2,4)-imidazo[2,1-f][1,2,4]triazina-2(3,5)-pyridinacyclododecaphan-5-one] | 99.9 | 9.9 |
| CCN1C(=O)N[C@@H](CCC(F)F)CCCCCOc2nc(cn3ncnc23)-c2cc(ncc2Cl)[C@H]1C [Example 128, (3R,7R,E)-25-chloro-7-(3,3-difluoropropyl)-4-ethyl-3-methyl-13-oxa-4,6-diaza-1(6,8)-[1,2,4]triazolo[1,5-a]pyrazina-2(4,2)-pyridinacyclotridecaphan-5-one] | 102.9 | 11.2 |
| CCN1C(=O)N[C@@H](CCC(F)(F)F)CCCCCOc2cc(nc3ccnn23)-c2cc(ncc2OC)[C@H]1C [Example 100, (11R,15R)-12-ethyl-7-methoxy-11-methyl-15-(3,3,3-trifluoropropyl)-11,12,15,16,17,18,19, 20-octahydro-5,22: 10,6-di(metheno)pyrazolo [1,5-c][1,3,5,10,13,15] oxapentaazacycloheni-cosin-13(14H)-one] | 102.2 | 10 |
| CCN1C(=O)NC(c2cscn2)CCCCCOc2nc(cn3ccnc23)-c2cccc(c2)[C@H]1C (single isomer, unassigned) [Example 19B] | 94.4 | 6.6 |
| CCN1Cc2cnc(OC)c(c2)-c2nc(c3nccn3n2)OCCCCC[C@H](CCC(C)(F)F)NC1=O [Example 125, (R,E)-7-(3,3-difluorobutyl)-4-ethyl-22-methoxy-13-oxa-4,6-diaza-1(2,4)-imidazo[2,1-f][1,2,4]triazina-2(3,5)-pyridinacyclotridecaphan-5-one] | 100.2 | 1.41 |
| CCN1C(=O)NCCCC(C)(C)COc2nc(cn3ccnc23)-c2cccc(c2)[C@H]1C [Example 13, (12R)-13-ethyl-12,19,19-tri-methyl-12,13,15, 16,17,18,19,20-octahydro-14H-6,22-(azeno)-11,7-(metheno) imidazo[2,1-c][1,4,13,15]oxa-triazacycloicosin-14-one] | 98.2 | 634 |
| CCN1C(=O)NC(CCC(F)F)CCCCCOc2nc(cn3ncnc23)-c2cc(ncc2C)[C@H]1C (stereo partly drawn) [Example 201, (3R,E)-7-(3,3-difluoropropyl)-4-ethyl-25,3-dimethyl-13-oxa-4,6-diaza-1(6,8)-[1,2,4]triazolo[1,5-a]pyrazina-2(4,2)-pyridina-cyclotridecaphan-5-one] | 101 | 3.68 |
| CCN1C(=O)N[C@@H](CCC(F)(F)F)CCOCCOc2nc(cn3ccnc23)-c2cc(ccn2)[C@H]1C [Example 161, (3R,7S,E)-4-ethyl-3-methyl-7-(3,3,3-trifluoropropyl)-10,13-dioxa-4,6-diaza-1(6,8)-imidazo[1,2-a]pyrazina-2(2,4)-pyridinacyclotridecaphan-5-one] | 101.7 | 2.66 |

Further lines, results first:

| hOX2R_Ipone max %act [%] | EC50 [nM] | SMILES |
| --- | --- | --- |
| 102.9 | 9.6 | CCN1C(=O)NC(CC2(C(F)(F)F)CC2)CCCCCOc2nc(cn3ccnc23)-c2cc(ncc2OC)[C@H]1C (single isomer, unassigned) [Example 66A] |
| 100.1 | 3.1 | CCN1C(=O)NC(CC2CC2(F)F)CCCCCOc2nc(cn3ccnc23)-c2cc(ncc2OC)[C@H]1C (single isomer, unassigned) [Example 59B] |
| 100.1 | 166 | CCN1C(=O)N[C@@H](CCC(F)(F)F)CCCCCOc2nc(cn3ccnc23)-c2cc(nc(C)n2)[C@@H]1C [Example 119A, (12S,16R)-13-ethyl-9,12-dimethyl-16-(3,3,3-trifluoropropyl)-12,13,16,17,18,19,20,21-octahydro-6,23-(azeno)-11,7-(metheno)imidazo[2,1-c][1,4,8,10,13,15]oxapentaazacyclohenicosin-14(15H)-one] |
| 100.6 | 8.6 | CCN1C(=O)NC(CCOC(F)(F)F)CCCCCOc2nc(cn3ccnc23)-c2cc(ncc2OC)[C@H]1C (single isomer, unassigned) [Example 73A] |
| 101.7 | 26 | CCN1C(=O)N[C@@H](CCC(F)(F)F)CCCCCOc2nc(cn3ccnc23)-c2nc(ncc2OC)[C@@H]1C [Example 117A, (12S,16R)-13-ethyl-8-methoxy-12-methyl-16-(3,3,3-trifluoropropyl)-12,13,16,17,18,19,20,21-octahydro-6,23:11,7-di(azeno)imidazo[2,1-c][1,4,10,13,15]oxatetraazacyclohenicosin-14(15H)-one] |
| 102.7 | 0.7 | CCN1C(=O)NC(CCC(C)F)CCCCCOc2nc(cn3ccnc23)-c2cc(ncc2OC)[C@H]1C (single isomer, unassigned) [Example 72B] |
| 100.5 | 2.9 | CCN1C(=O)N[C@@H](CCC(F)(F)F)CCCCCOc2cc(cn3ccnc23)-c2cc(ncn2)C1C (single isomer, unassigned) [Example 96B] |
| 99.2 | 78.9 | CCN1C(=O)NC(CC2CC2)CCCCCOc2nc(cn3ccnc23)-c2cc(ncc2OC)[C@H]1C (single isomer, unassigned) [Example 55A] |
| 100.5 | 4.2 | CCN1C(=O)NC(CCC(C)(C)F)CCCCCOc2nc(cn3ccnc23)-c2cc(ncc2OC)[C@H]1C (single isomer, unassigned) [Example 71A] |
| 100.9 | 0.9 | CCN1C(=O)NC(CC2CC2(F)F)CCCCCOc2nc(cn3ccnc23)-c2cc(ncc2OC)[C@H]1C (single isomer, unassigned) [Example 59D] |
| 99.8 | 1.6 | CCC(CC)CC1CCCCCOc2nc(cn3ccnc23)-c2cc(ncc2OC)[C@@H](C)N(CC)C(=O)N1 (single isomer, unassigned) [Example 64B] |
| 99.3 | 0.5 | CCN1C(=O)NC(CC2CC2(F)F)CCCCCOc2nc(cn3ccnc23)-c2cc(ncc2OC)[C@H]1C (single isomer, unassigned) [Example 59C] |
| 101.5 | 8.9 | CCN1C(=O)N[C@@H](CCC(F)(F)F)CCCCOc2nc(cn3cc(C)nc23)-c2cc(ncc2OC)C1C(F)(F)F (single isomer, unassigned) [Example 36B] |
| 101.1 | 16.4 | CCN1C(=O)N[C@@H](CCC(F)(F)F)CCCCOc2nc(cn3ncnc23)-c2cc(ncc2OC)C1C(F)(F)F (single isomer, unassigned) [Example 34B] |
